Experimental data: ChEMBL document CHEMBL1125979, “Phosphinic acid inhibitors of 3-hydroxy-3-methylglutaryl-coenzyme a reductase” (Bioorg Med Chem Lett, 1991)

What was measured:
HepG2 [1] = assay: The compound was tested for inhibition of cholesterol biosynthesis in human hepatoma G2 cell line; assay type: functional, cell-based
[2] = biological target: T1, 3-hydroxy-3-methylglutaryl-coenzyme A reductase (Homo sapiens, UniProt P04035); assay: The inhibitory activity against purified recombinant human HMG-CoA reductase was evaluated
T1 sequence (P04035 whole entry): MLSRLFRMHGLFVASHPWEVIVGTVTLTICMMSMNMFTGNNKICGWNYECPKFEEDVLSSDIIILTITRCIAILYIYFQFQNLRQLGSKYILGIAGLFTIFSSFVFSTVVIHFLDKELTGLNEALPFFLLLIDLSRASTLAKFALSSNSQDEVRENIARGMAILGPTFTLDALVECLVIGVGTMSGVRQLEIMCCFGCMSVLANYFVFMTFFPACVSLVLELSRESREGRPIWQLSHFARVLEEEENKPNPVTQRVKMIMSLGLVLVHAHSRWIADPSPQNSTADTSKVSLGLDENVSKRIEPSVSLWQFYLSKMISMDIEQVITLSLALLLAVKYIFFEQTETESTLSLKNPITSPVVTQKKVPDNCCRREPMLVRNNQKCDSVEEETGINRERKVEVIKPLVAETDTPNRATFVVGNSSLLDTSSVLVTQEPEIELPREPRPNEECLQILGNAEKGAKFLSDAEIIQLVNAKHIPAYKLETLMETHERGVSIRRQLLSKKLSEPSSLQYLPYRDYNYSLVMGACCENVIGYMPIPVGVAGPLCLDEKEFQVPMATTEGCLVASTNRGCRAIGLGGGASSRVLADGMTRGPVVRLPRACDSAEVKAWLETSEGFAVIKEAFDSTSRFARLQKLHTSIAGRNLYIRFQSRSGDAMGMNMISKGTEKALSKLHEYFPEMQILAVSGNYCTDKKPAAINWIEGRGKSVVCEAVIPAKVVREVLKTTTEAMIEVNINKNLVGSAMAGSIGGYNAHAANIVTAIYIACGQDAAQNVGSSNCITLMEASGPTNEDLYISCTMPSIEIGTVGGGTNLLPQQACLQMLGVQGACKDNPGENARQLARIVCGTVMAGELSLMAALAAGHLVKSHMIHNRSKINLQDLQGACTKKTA

HepG2 [3] = assay: The compound was tested for inhibition of cholesterol biosynthesis in human hepatoma G2 cell line; showed relatively low potency; assay type: functional, cell-based

IC50 (HepG2 [1])	Ki [2]	IC50 (HepG2 [3])	Compound
100 nM	–	–	CC(C)(C)C(=O)OCOC(=O)CC(O)CP(=O)(CCc1c(Cl)cc(Cl)cc1OCc1ccccc1)OCOC(=O)C(C)(C)C (stereo not given)
–	3 nM	–	O=C(O)C[C@H](O)C[C@H](O)CCc1c(Cl)cc(Cl)cc1OCc1ccccc1
–	16 nM	> 1000 nM	O=C(O)C[C@H](O)CP(=O)(O)CCc1c(Cl)cc(Cl)cc1OCc1ccccc1
100 nM	–	–	COC(=O)CC(O)CP(=O)(O)CCc1c(Cl)cc(Cl)cc1OCc1ccccc1 (stereo not given)
